Results as given in patent publication US20250188149A1, “ENHANCING ESTROGEN RECEPTOR ALPHA IN OSTEOARTHRITIS” (University of Pittsburgh - Of the Commonwealth System of …, priority 2022, published 2025).

Legend:
[1] = system: healthy human chondrocytes; assay: DOX-induced DNA damage and senescence in healthy human chondrocytes; settings: 100 nM DOX, 3 days, vs vehicle
[2] = patients with knee OA, intra-articular injection, phase II clinical trial, vs placebo; cited from earlier work

SMILES: COc1cccc2c1C(=O)c1c(O)c3c(c(O)c1C2=O)C[C@@](O)(C(=O)CO)C[C@@H]3O[C@H]1C[C@H](N)[C@H](O)[C@H](C)O1 [DOX, doxorubicin]
- DNA damage (p21, γH2AX levels, comet assay) [1]: significant DNA damage
- IL-6 and IL-8 expression (real-time qPCR) [1]: upregulation
- NF-κB pathway (NFκB gene, p-p65) [1]: activated
- SA-β-Gal staining (senescent phenotype) [1]: increased
- p16INK4A and p21 levels [1]: upregulation
- ERα level ([1]; western blot and IF): significantly reduced

SMILES: CC1(C)CCC(c2ccc(Cl)cc2)=C(CN2CCN(c3ccc(C(=O)NS(=O)(=O)c4ccc(N[C@H](CCN5CCOCC5)CSc5ccccc5)c(S(=O)(=O)C(F)(F)F)c4)cc3)CC2)C1 [ABT-263]
- reduction of joint pain and stiffness [2]: failed to outperform a placebo
